The source made the active and inactive calls. The rule behind the calls is not given here.
How the values were obtained:
Integrin alpha-V/beta-6 [1] = molecular target: T1, Integrin alpha-V/beta-6 (Homo sapiens, UniProt P06756+P18564); assay: Displacement of fluorescein labeled GRGDLGRL from human Integrin alphaVbeta6 preincubated for 15 mins followed by fluorescein labeled GRGDLGRL addition and measured after 1 hr by fluorescence polarization assay; assay type: protein-complex assay
Integrin alpha-V/beta-1 = Integrin alpha-V/beta-1 (Homo sapiens, UniProt P05556+P06756); assay: Displacement of fluorescein labeled ACRGDGWC from human Integrin alphaVbeta1 preincubated for 15 mins followed by fluorescein labeled ACRGDGWC addition and measured after 1 hr by fluorescence polarization assay; assay type: protein-complex assay
Chain of Integrin alpha-V/beta-1 (P05556 21-798 limits assumed): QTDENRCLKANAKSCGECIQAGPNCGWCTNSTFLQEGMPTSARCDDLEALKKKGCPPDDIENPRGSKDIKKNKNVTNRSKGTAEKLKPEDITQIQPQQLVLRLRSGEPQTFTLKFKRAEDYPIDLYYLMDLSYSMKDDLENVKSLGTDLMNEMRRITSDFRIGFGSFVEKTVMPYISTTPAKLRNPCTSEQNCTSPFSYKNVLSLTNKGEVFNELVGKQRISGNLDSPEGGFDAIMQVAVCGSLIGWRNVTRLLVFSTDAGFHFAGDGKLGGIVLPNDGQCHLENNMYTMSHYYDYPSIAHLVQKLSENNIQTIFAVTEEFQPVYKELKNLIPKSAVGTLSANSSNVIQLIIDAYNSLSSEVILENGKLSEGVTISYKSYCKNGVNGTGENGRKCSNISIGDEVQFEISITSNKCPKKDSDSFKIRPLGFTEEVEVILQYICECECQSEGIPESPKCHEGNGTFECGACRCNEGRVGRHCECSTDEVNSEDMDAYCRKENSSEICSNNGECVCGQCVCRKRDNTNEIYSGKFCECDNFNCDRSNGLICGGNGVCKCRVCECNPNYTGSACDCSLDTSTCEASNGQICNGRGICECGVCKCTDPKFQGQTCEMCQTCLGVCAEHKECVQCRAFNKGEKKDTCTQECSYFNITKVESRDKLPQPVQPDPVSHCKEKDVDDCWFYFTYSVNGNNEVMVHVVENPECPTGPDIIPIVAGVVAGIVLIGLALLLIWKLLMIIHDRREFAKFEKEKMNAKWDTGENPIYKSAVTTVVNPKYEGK
Chain of Integrin alpha-V/beta-1 (P06756 31-889 limits assumed): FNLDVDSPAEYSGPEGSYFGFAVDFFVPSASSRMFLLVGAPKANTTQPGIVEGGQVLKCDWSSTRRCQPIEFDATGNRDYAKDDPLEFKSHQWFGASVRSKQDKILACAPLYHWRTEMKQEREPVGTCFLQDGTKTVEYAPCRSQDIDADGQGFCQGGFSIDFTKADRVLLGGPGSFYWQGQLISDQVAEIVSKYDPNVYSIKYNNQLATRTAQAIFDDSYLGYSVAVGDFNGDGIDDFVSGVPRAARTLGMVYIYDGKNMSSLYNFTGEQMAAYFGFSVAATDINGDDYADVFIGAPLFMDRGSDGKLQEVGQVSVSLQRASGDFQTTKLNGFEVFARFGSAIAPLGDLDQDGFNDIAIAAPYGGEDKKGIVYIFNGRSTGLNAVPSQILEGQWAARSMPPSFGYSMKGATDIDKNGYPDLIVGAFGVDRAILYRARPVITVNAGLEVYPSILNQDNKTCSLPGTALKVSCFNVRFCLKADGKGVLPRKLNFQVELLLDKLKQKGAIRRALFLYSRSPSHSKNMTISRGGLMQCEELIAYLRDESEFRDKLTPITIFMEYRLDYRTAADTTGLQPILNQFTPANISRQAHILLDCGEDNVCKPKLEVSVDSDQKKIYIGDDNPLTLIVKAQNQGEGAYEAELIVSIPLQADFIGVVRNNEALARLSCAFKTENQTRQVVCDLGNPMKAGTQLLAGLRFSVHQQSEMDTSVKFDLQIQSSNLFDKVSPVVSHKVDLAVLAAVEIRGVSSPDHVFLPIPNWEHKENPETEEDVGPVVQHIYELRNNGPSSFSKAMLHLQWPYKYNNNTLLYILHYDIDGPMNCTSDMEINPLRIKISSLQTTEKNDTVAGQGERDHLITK
Chain of Integrin alpha-V/beta-1 (P06756 891-1048 limits assumed): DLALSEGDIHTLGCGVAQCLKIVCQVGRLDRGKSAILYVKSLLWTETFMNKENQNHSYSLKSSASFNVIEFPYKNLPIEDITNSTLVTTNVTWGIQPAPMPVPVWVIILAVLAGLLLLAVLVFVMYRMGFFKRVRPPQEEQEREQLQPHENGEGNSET

Integrin alpha-V/beta-8 = Integrin alpha-V/beta-8 (Homo sapiens, UniProt P06756+P26012); assay: Displacement of fluorescein labeled GRGDLGRL from human Integrin alphaVbeta8 preincubated for 15 mins followed by fluorescein labeled GRGDLGRL addition and measured after 1 hr by fluorescence polarization assay; assay type: protein-complex assay
Chain of Integrin alpha-V/beta-8 (P06756 31-889 limits assumed): as the sequence (P06756 31-889 limits assumed) above
Chain of Integrin alpha-V/beta-8 (P06756 891-1048 limits assumed): as the sequence (P06756 891-1048 limits assumed) above
Chain of Integrin alpha-V/beta-8 (P26012 43-769 limits assumed): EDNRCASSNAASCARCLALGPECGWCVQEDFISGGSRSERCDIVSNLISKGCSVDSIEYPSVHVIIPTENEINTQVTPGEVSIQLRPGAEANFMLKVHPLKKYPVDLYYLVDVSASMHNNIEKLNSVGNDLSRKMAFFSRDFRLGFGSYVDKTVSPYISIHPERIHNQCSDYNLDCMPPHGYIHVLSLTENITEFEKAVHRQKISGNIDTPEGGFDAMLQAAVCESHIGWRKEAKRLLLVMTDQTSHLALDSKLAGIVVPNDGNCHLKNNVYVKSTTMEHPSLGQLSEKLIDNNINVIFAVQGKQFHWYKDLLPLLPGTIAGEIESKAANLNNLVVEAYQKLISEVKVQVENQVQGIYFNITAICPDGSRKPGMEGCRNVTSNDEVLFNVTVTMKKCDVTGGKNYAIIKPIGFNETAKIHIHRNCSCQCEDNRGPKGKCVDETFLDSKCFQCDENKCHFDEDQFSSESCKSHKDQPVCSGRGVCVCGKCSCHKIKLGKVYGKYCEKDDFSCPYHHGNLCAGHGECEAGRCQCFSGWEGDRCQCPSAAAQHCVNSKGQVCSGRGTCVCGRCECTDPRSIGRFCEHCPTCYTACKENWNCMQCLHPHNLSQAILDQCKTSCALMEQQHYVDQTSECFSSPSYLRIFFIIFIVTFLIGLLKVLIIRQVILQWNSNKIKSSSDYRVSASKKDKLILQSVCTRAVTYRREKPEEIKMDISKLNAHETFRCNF

[2] = Octanol/water partition coefficient, logD of the compound; assay type: physicochemical
[3] = Clearance in Sprague-Dawley rat at 1 mg/kg, iv measured upto 24 hrs by LC/MS-MS analysis; assay type: ADME, organism-based; conditions: in vivo
[4] = Volume of distribution at steady state in Sprague-Dawley rat at 1 mg/kg, iv measured upto 24 hrs by LC/MS-MS analysis; assay type: ADME, organism-based; conditions: in vivo, read-out: Vdss
[5] = Half-life in Sprague-Dawley rat at 1 mg/kg, iv measured upto 24 hrs by LC/MS-MS analysis; assay type: ADME, organism-based; conditions: in vivo
[6] = Oral bioavailability in Sprague-Dawley rat at 10 mg/kg measured upto 24 hrs by LC/MS-MS analysis; assay type: ADME, organism-based; conditions: in vivo
[7] = Clearance in C57BL/6 mouse at 1 mg/kg, iv measured upto 24 hrs by LC/MS-MS analysis; assay type: ADME, organism-based; conditions: in vivo
[8] = Volume of distribution at steady state in C57BL/6 mouse at 1 mg/kg, iv measured upto 24 hrs by LC/MS-MS analysis; assay type: ADME, organism-based; conditions: in vivo, read-out: Vdss
[9] = Half-life in C57BL/6 mouse at 1 mg/kg, iv measured upto 24 hrs by LC/MS-MS analysis; assay type: ADME, organism-based; conditions: in vivo
[10] = AUCinfinity in C57BL/6 mouse at 1 mg/kg, iv measured upto 24 hrs by LC/MS-MS analysis; assay type: ADME, organism-based; conditions: in vivo
[11] = AUCinfinity in Sprague-Dawley rat at 1 mg/kg, iv measured upto 24 hrs by LC/MS-MS analysis; assay type: ADME, organism-based; conditions: in vivo
[12] = Volume of distribution at steady state in Beagle dog at 1 mg/kg, iv measured upto 24 hrs by LC/MS-MS analysis; assay type: ADME, organism-based, Canis lupus familiaris; conditions: in vivo, read-out: Vdss
[13] = Half-life in Beagle dog at 1 mg/kg, iv measured upto 24 hrs by LC/MS-MS analysis; assay type: ADME, organism-based, Canis lupus familiaris; conditions: in vivo
[14] = AUCinfinity in Beagle dog at 1 mg/kg, iv measured upto 24 hrs by LC/MS-MS analysis; assay type: ADME, organism-based, Canis lupus familiaris; conditions: in vivo
[15] = Clearance in cynomolgus monkey at 1 mg/kg, iv measured upto 24 hrs by LC/MS-MS analysis; assay type: ADME, organism-based, Macaca fascicularis; conditions: in vivo
[16] = Volume of distribution at steady state in cynomolgus monkey at 1 mg/kg, iv measured upto 24 hrs by LC/MS-MS analysis; assay type: ADME, organism-based, Macaca fascicularis; conditions: in vivo, read-out: Vdss
[17] = Half-life in cynomolgus monkey at 1 mg/kg, iv measured upto 24 hrs by LC/MS-MS analysis; assay type: ADME, organism-based, Macaca fascicularis; conditions: in vivo
[18] = AUCinfinity in cynomolgus monkey at 1 mg/kg, iv measured upto 24 hrs by LC/MS-MS analysis; assay type: ADME, organism-based, Macaca fascicularis; conditions: in vivo
[19] = Cmax in C57BL/6 mouse at 30 mg/kg, po measured upto 24 hrs by LC/MS-MS analysis; assay type: ADME, organism-based; conditions: in vivo
[20] = Tmax in C57BL/6 mouse at 30 mg/kg, po measured upto 24 hrs by LC/MS-MS analysis; assay type: ADME, organism-based; conditions: in vivo
[21] = Half-life in C57BL/6 mouse at 30 mg/kg, po measured upto 24 hrs by LC/MS-MS analysis; assay type: ADME, organism-based; conditions: in vivo
[22] = AUCinfinity in C57BL/6 mouse at 30 mg/kg, po measured upto 24 hrs by LC/MS-MS analysis; assay type: ADME, organism-based; conditions: in vivo
[23] = Oral bioavailability in C57BL/6 mouse at 30 mg/kg measured upto 24 hrs by LC/MS-MS analysis; assay type: ADME, organism-based; conditions: in vivo
[24] = Fraction of compound absorbed into portal vein (FaFg) in C57BL/6 mouse at 30 mg/kg, po measured upto 24 hrs by LC/MS-MS analysis; assay type: ADME, organism-based; conditions: in vivo
[25] = Cmax in Sprague-Dawley rat at 30 mg/kg, po measured upto 24 hrs by LC/MS-MS analysis; assay type: ADME, organism-based; conditions: in vivo
[26] = Tmax in Sprague-Dawley rat at 30 mg/kg, po measured upto 24 hrs by LC/MS-MS analysis; assay type: ADME, organism-based; conditions: in vivo
[27] = Half-life in Sprague-Dawley rat at 30 mg/kg, po measured upto 24 hrs by LC/MS-MS analysis; assay type: ADME, organism-based; conditions: in vivo
[28] = AUCinfinity in Sprague-Dawley rat at 30 mg/kg, po measured upto 24 hrs by LC/MS-MS analysis; assay type: ADME, organism-based; conditions: in vivo
[29] = Oral bioavailability in Sprague-Dawley rat at 30 mg/kg measured upto 24 hrs by LC/MS-MS analysis; assay type: ADME, organism-based; conditions: in vivo
[30] = Fraction of compound absorbed into portal vein (FaFg) in Sprague-Dawley rat at 30 mg/kg, po measured upto 24 hrs by LC/MS-MS analysis; assay type: ADME, organism-based; conditions: in vivo
[31] = Cmax in cynomolgus […] at 5 mg/kg, po measured upto 24 hrs by LC/MS-MS analysis; assay type: ADME, organism-based, Macaca fascicularis; conditions: in vivo
[32] = Tmax in cynomolgus […] at 5 mg/kg, po measured upto 24 hrs by LC/MS-MS analysis; assay type: ADME, organism-based, Macaca fascicularis; conditions: in vivo
[33] = Half-life in cynomolgus […] at 5 mg/kg, po measured upto 24 hrs by LC/MS-MS analysis; assay type: ADME, organism-based, Macaca fascicularis; conditions: in vivo
[34] = AUCinfinity in cynomolgus […] at 5 mg/kg, po measured upto 24 hrs by LC/MS-MS analysis; assay type: ADME, organism-based, Macaca fascicularis; conditions: in vivo
[35] = Oral bioavailability in cynomolgus […] at 5 mg/kg measured upto 24 hrs by LC/MS-MS analysis; assay type: ADME, organism-based, Macaca fascicularis; conditions: in vivo
[36] = Fraction of compound absorbed into portal vein (FaFg) in cynomolgus monkey at 30 mg/kg, po measured upto 24 hrs by LC/MS-MS analysis; assay type: ADME, organism-based, Macaca fascicularis; conditions: in vivo
Integrin alpha-V/beta-6 [37] = molecular target: T1, Integrin alpha-V/beta-6; assay: Binding affinity to human Integrin alphaVbeta6 overexpressed in HEK293 cells incubated for 15 mins in presence of human serum by flow cytometry assay; assay type: cell-based
Integrin alpha-V/beta-6 [38] = molecular target: T1, Integrin alpha-V/beta-6; assay: Inhibition of Integrin alphaVbeta6 (unknown origin) mediated TGF-beta1 activation expressed in HEK293 cells cocultured with MLEC cells expressing luciferase reporter; assay type: cell-based
Integrin alpha-V/beta-6 [39] = molecular target: T1, Integrin alpha-V/beta-6; assay: Inhibition of Integrin alphaVbeta6 (unknown origin) mediated TGF-beta1 activation expressed in primary epithelial cells cocultured with idiopathic pulmonary fibroblast cells assessed as downregulation of COL1A1 mRNA expression measured after 72 hrs by qPCR assay; assay type: cell-based, Epithelial cell
Integrin alpha-V/beta-6 [40] = molecular target: T1, Integrin alpha-V/beta-6; assay: Inhibition of Integrin alphaVbeta6 (unknown origin) mediated TGF-beta1 activation expressed in primary epithelial cells cocultured with idiopathic pulmonary fibroblast cells assessed as downregulation of COL3A1 mRNA expression measured after 72 hrs by qPCR assay; assay type: cell-based, Epithelial cell
Integrin alpha-V/beta-6 [41] = molecular target: T1, Integrin alpha-V/beta-6; assay: Inhibition of Integrin alphaVbeta6 (unknown origin) mediated TGF-beta1 activation expressed in primary epithelial cells cocultured with idiopathic pulmonary fibroblast cells assessed as downregulation of FN mRNA expression measured after 72 hrs by qPCR assay; assay type: cell-based, Epithelial cell
Mus musculus [42] = assay: Antifibrotic activity against BLM-induced C57BL/6J mouse acute lung fibrosis model assessed as reduction in pSMAD2:total protein ratio at 0.1 to 100 mg/kg, po administered twice daily for 3 days; assay type: functional, organism-based; conditions: dose 0.1-100 mg/kg, time 3.0 day
Mus musculus [43] = assay: Antifibrotic activity against BLM-induced po dosed C57BL/6J mouse acute lung fibrosis model assessed as reduction in pSMAD2 level administered twice daily for 3 days; assay type: functional, organism-based; conditions: 72 h
Mus musculus [44] = assay: Antifibrotic activity against BLM-induced C57BL/6J mouse acute lung fibrosis model assessed as reduction in modified ashcroft score at 1 to 10 mg/kg, po administered twice daily for 14 days; assay type: functional; set-up: scale not given: the % may be the effect or the level left; conditions: dose 1-10 mg/kg, time 14 day
Mus musculus [45] = assay: Antifibrotic activity against BLM-induced C57BL/6J mouse acute lung fibrosis model assessed as reduction in picrosirius red positive area at 1 to 10 mg/kg, po administered twice daily for 14 days; assay type: functional, organism-based; conditions: dose 1-10 mg/kg, time 14.0 day
Mus musculus [46] = assay: Antifibrotic activity against BLM-induced C57BL/6J mouse acute lung fibrosis model assessed as reduction in total collagen deposition at 3 mg/kg, po administered twice daily for 14 days; assay type: functional, organism-based; conditions: time 14.0 day
Mus musculus [47] = assay: Antifibrotic activity against BLM-induced C57BL/6J mouse acute lung fibrosis model assessed as reduction in collagen fiber density at 3 mg/kg, po administered twice daily for 14 days; assay type: functional, organism-based; conditions: time 14.0 day
Mus musculus [48] = assay: Antifibrotic activity against BLM-induced C57BL/6J mouse acute lung fibrosis model assessed as reduction in collagen structure index at 3 mg/kg, po administered twice daily for 14 days; assay type: functional, organism-based; conditions: time 14.0 day
Mus musculus [49] = assay: Antifibrotic activity against BLM-induced po dosed C57BL/6J mouse acute lung fibrosis model assessed as reduction in modified ashcroft score administered twice daily for 14 days; assay type: functional; set-up: scale not given: the % may be the effect or the level left; conditions: time 14 day

T1 sequence (P06756 31-889 limits assumed): as the sequence (P06756 31-889 limits assumed) above
T1 sequence (P06756 891-1048 limits assumed): as the sequence (P06756 891-1048 limits assumed) above
T1 sequence (P18564 22-788 limits assumed): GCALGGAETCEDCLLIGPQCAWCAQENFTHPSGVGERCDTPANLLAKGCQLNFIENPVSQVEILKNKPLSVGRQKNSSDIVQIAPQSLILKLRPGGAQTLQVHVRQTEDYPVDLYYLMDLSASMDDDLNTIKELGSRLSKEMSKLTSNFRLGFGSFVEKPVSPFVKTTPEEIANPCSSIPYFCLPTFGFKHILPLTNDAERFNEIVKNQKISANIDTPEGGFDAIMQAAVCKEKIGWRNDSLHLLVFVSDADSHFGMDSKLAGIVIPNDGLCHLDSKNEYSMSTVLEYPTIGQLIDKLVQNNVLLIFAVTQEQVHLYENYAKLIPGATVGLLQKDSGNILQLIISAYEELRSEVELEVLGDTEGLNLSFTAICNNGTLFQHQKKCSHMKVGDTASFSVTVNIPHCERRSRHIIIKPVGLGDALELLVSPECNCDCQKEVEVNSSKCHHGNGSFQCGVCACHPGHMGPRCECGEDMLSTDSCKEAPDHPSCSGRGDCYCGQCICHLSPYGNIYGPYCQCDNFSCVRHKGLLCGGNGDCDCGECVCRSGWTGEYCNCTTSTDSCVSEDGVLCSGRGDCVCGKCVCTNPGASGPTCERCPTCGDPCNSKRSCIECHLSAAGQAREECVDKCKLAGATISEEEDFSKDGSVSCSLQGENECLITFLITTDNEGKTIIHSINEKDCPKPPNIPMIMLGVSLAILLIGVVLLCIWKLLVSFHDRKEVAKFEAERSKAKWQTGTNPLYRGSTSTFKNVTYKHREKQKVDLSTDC

## O=C(O)[C@H](c1cc(F)ccc1[C@@H]1CCC2(CC2)CO1)N1CC[C@@H](OCCCCc2ccc3c(n2)NCCC3)C1
Integrin alpha-V/beta-6 [1]
  IC50: 1.1 nM
Integrin alpha-V/beta-1
  IC50: 490 nM
Integrin alpha-V/beta-8
  IC50: 330 nM
[2]
  logD: 2.2
[3]
  clearance: 28 mL/min/kg
[4]
  Vd: 3.1 L/kg
[5]
  half-life: 1.9 h
[6]
  bioavailability: 22%
[7]
  clearance: 18 mL/min/kg
[8]
  Vd: 2.07 L/kg
[9]
  half-life: 1.9 h
[10]
  AUC(0-inf): 940 ng·h/mL
[11]
  AUC(0-inf): 610 ng·h/mL
[12]
  Vd: 1.84 L/kg
[13]
  half-life: 4.9 h
[14]
  AUC: 2970 ng·h/mL
[15]
  clearance: 10.5 mL/min/kg
[16]
  Vd: 2.45 L/kg
[17]
  half-life: 4.9 h
[18]
  AUC(0-inf): 1590 ng·h/mL
[19]
  Cmax: 7600 ng/mL
[20]
  Tmax: 0.25 h
[21]
  t1/2: 2.6 h
[22]
  AUC(0-inf): 19000 ng·h/mL
[23]
  bioavailability: 66%
[24]
  FaFg: 83%
[25]
  Cmax: 14000 ng/mL
[26]
  Tmax: 0.25 h
[27]
  t1/2: 1.8 h
[28]
  AUC(0-inf): 14000 ng·h/mL
[29]
  bioavailability: 74%
[30]
  FaFg: 123%
[31]
  Cmax: 540 ng/mL
[32]
  Tmax: 1 h
[33]
  t1/2: 4.8 h
[34]
  AUC(0-inf): 1600 ng·h/mL
[35]
  bioavailability: 16%
[36]
  FaFg: 21%
Integrin alpha-V/beta-6 [37]
  IC50: 9.2 nM
Integrin alpha-V/beta-6 [38]
  IC50: 2.63 nM
Integrin alpha-V/beta-6 [39]
  IC50: 1.8 nM
Integrin alpha-V/beta-6 [40]
  IC50: 12.8 nM
Integrin alpha-V/beta-6 [41]
  IC50: 20.3 nM
Mus musculus [42]
  Activity: Active; Showed Significant Activity At 10 To 30 Mg/Kg
Mus musculus [43]
  IC50: 8.3 nM
Mus musculus [44]
  Activity: 33%
Mus musculus [45]
  Activity: Active; No Statistical Significant Activity
Mus musculus [46]
  Activity: Active
Mus musculus [47]
  Activity: Active
Mus musculus [48]
  Activity: Active

## Cc1cccc(-c2[nH]c(C(C)(C)C)nc2-c2ccc3nccnc3c2)n1
Mus musculus [49]
  Activity: 37%

Reference: ChEMBL document CHEMBL6083263, “The Discovery of MORF-627, a Highly Selective Conformationally-Biased Zwitterionic Integrin αvβ6 Inhibitor for Fibrosis” (J Med Chem, 2024)
